# Test results as given in BindingDB's records for doi:10.1016/S0960-894X(02)00564-4 (Universita Degli Studi Di Firenze, 2002).
# Target: T1, Collagenase ColG (Hathewaya histolytica, UniProt Q9X721)
# T1 sequence (Q9X721 whole entry): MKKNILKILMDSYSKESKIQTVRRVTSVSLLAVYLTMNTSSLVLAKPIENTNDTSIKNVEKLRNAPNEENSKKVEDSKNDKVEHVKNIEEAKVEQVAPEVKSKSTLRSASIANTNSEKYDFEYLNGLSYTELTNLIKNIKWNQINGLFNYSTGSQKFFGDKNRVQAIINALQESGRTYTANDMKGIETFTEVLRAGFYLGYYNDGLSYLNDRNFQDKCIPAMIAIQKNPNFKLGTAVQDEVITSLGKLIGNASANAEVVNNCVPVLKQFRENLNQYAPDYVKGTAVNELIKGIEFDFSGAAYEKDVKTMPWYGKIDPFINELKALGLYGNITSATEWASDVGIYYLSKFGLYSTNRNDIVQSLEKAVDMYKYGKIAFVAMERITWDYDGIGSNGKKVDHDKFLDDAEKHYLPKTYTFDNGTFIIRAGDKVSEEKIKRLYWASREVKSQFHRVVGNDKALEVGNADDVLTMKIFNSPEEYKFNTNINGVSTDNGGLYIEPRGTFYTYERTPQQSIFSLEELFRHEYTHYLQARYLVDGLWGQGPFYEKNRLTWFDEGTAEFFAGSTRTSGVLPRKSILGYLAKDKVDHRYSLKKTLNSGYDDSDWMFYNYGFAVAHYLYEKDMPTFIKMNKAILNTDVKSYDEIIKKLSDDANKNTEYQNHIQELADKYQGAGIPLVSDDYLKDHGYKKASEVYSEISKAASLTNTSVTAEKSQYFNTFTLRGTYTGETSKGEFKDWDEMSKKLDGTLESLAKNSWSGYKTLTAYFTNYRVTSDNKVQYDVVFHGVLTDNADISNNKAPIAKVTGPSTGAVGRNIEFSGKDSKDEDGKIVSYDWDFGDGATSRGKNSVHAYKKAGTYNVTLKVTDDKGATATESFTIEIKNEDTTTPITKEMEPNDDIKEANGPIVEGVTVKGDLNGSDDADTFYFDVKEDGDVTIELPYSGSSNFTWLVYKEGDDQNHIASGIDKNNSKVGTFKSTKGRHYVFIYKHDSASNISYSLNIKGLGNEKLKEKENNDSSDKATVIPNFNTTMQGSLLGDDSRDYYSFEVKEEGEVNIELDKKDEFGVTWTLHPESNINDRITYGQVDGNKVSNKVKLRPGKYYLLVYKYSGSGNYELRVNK
# Assay: MMP Enzyme Inhibition Assay
# Protocol: Initial rates for the hydrolysis of the thioester substrate were used for assessing the catalytic activity and inhibition of the MMPs by the spectrophotometric method. The change of absorbance at 405 nm was monitored. The inhibition constant Ki was then determined by using Easson-Stedman plots and a linear regression program.
row,SMILES,Ki [µM]
1,"CC(NC(=O)C(Cc1ccccc1)NS(=O)(=O)c1ccc2ccccc2c1)C(=O)Nc1nnc(S)s1 (stereo unspecified) [2-(naphthalene-2-sulfonamido)-3-phenyl-N-{1-[(5-sulfanyl-1,3,4-thiadiazol-2-yl)carbamoyl]ethyl}propanamide]",40
2,"CC(NC(=O)C(Cc1ccccc1)NC(=O)NS(=O)(=O)c1ccc(Cl)cc1)C(=O)Nc1nnc(S)s1 (stereo unspecified) [2-({[(4-chlorobenzene)sulfonyl]carbamoyl}amino)-3-phenyl-N-{1-[(5-sulfanyl-1,3,4-thiadiazol-2-yl)carbamoyl]ethyl}propanamide]",0.3
3,"CC(NC(=O)C(Cc1ccccc1)NC(=O)NS(=O)(=O)c1ccc(F)cc1)C(=O)Nc1nnc(S)s1 (stereo unspecified) [2-({[(4-fluorobenzene)sulfonyl]carbamoyl}amino)-3-phenyl-N-{1-[(5-sulfanyl-1,3,4-thiadiazol-2-yl)carbamoyl]ethyl}propanamide]",0.2
4,"Cc1ccc(S(=O)(=O)NC(=O)NC(Cc2ccccc2)C(=O)NC(C)C(=O)Nc2nnc(S)s2)cc1 (stereo unspecified) [2-({[(4-methylbenzene)sulfonyl]carbamoyl}amino)-3-phenyl-N-{1-[(5-sulfanyl-1,3,4-thiadiazol-2-yl)carbamoyl]ethyl}propanamide]",4
5,"CC(NC(=O)C(Cc1ccccc1)NS(=O)(=O)c1c(F)c(F)c(F)c(F)c1F)C(=O)Nc1nnc(S)s1 (stereo unspecified) [2-[(2,3,4,5,6-pentafluorobenzene)sulfonamido]-3-phenyl-N-{1-[(5-sulfanyl-1,3,4-thiadiazol-2-yl)carbamoyl]ethyl}propanamide]",5
6,"CC(NC(=O)C(Cc1ccccc1)NS(=O)(=O)c1cc(Cl)ccc1Cl)C(=O)Nc1nnc(S)s1 (stereo unspecified) [2-[(2,5-dichlorobenzene)sulfonamido]-3-phenyl-N-{1-[(5-sulfanyl-1,3,4-thiadiazol-2-yl)carbamoyl]ethyl}propanamide]",15
7,"CC(=O)Nc1ccc(S(=O)(=O)NC(Cc2ccccc2)C(=O)NC(C)C(=O)Nc2nnc(S)s2)cc1 (stereo unspecified) [2-[(4-acetamidobenzene)sulfonamido]-3-phenyl-N-{1-[(5-sulfanyl-1,3,4-thiadiazol-2-yl)carbamoyl]ethyl}propanamide]",16
8,"CC(NC(=O)C(Cc1ccccc1)NS(=O)(=O)c1ccc(Br)cc1)C(=O)Nc1nnc(S)s1 (stereo unspecified) [2-[(4-bromobenzene)sulfonamido]-3-phenyl-N-{1-[(5-sulfanyl-1,3,4-thiadiazol-2-yl)carbamoyl]ethyl}propanamide]",16
9,"CC(NC(=O)C(Cc1ccccc1)NS(=O)(=O)c1ccc(F)cc1)C(=O)Nc1nnc(S)s1 (stereo unspecified) [2-[(4-fluorobenzene)sulfonamido]-3-phenyl-N-{1-[(5-sulfanyl-1,3,4-thiadiazol-2-yl)carbamoyl]ethyl}propanamide]",21
10,"CC(NC(=O)C(Cc1ccccc1)NS(=O)(=O)c1ccc(I)cc1)C(=O)Nc1nnc(S)s1 (stereo unspecified) [2-[(4-iodobenzene)sulfonamido]-3-phenyl-N-{1-[(5-sulfanyl-1,3,4-thiadiazol-2-yl)carbamoyl]ethyl}propanamide]",14
11,"COc1ccc(S(=O)(=O)NC(Cc2ccccc2)C(=O)NC(C)C(=O)Nc2nnc(S)s2)cc1 (stereo unspecified) [2-[(4-methoxybenzene)sulfonamido]-3-phenyl-N-{1-[(5-sulfanyl-1,3,4-thiadiazol-2-yl)carbamoyl]ethyl}propanamide]",14
12,"Cc1ccc(S(=O)(=O)NC(Cc2ccccc2)C(=O)NC(C)C(=O)Nc2nnc(S)s2)cc1 (stereo unspecified) [2-[(4-methylbenzene)sulfonamido]-3-phenyl-N-{1-[(5-sulfanyl-1,3,4-thiadiazol-2-yl)carbamoyl]ethyl}propanamide]",15
13,"CC(NC(=O)C(Cc1ccccc1)NS(=O)(=O)c1ccc([N+](=O)[O-])cc1)C(=O)Nc1nnc(S)s1 (stereo unspecified) [2-[(4-nitrobenzene)sulfonamido]-3-phenyl-N-{1-[(5-sulfanyl-1,3,4-thiadiazol-2-yl)carbamoyl]ethyl}propanamide]",13
14,"CC(NC(=O)C(Cc1ccccc1)NS(=O)(=O)CC12CCC(CC1=O)C2(C)C)C(=O)Nc1nnc(S)s1 (stereo unspecified) [2-[({7,7-dimethyl-2-oxobicyclo[2.2.1]heptan-1-yl}methane)sulfonamido]-3-phenyl-N-{1-[(5-sulfanyl-1,3,4-thiadiazol-2-yl)carbamoyl]ethyl}propanamide]",25
15,"CC(NC(=O)C(Cc1ccccc1)NS(=O)(=O)c1cccc2c(N(C)C)cccc12)C(=O)Nc1nnc(S)s1 (stereo unspecified) [2-{[5-(dimethylamino)naphthalene-1-]sulfonamido}-3-phenyl-N-{1-[(5-sulfanyl-1,3,4-thiadiazol-2-yl)carbamoyl]ethyl}propanamide]",43
16,"CC(NC(=O)C(Cc1ccccc1)NC(=O)NS(=O)(=O)c1ccccc1)C(=O)Nc1nnc(S)s1 (stereo unspecified) [2-{[(benzenesulfonyl)carbamoyl]amino}-3-phenyl-N-{1-[(5-sulfanyl-1,3,4-thiadiazol-2-yl)carbamoyl]ethyl}propanamide]",3
17,"CC(NC(=O)C(Cc1ccccc1)NS(=O)(=O)Cc1ccccc1)C(=O)Nc1nnc(S)s1 (stereo unspecified) [3-phenyl-2-(phenylmethane)sulfonamido-N-{1-[(5-sulfanyl-1,3,4-thiadiazol-2-yl)carbamoyl]ethyl}propanamide]",19
18,"CC(NC(=O)C(Cc1ccccc1)NS(=O)(=O)c1cccc2cccnc12)C(=O)Nc1nnc(S)s1 (stereo unspecified) [3-phenyl-2-(quinoline-8-sulfonamido)-N-{1-[(5-sulfanyl-1,3,4-thiadiazol-2-yl)carbamoyl]ethyl}propanamide]",36
19,"CC(NC(=O)C(Cc1ccccc1)NS(=O)(=O)c1cccs1)C(=O)Nc1nnc(S)s1 (stereo unspecified) [3-phenyl-N-{1-[(5-sulfanyl-1,3,4-thiadiazol-2-yl)carbamoyl]ethyl}-2-(thiophene-2-sulfonamido)propanamide]",9
20,"Cc1cc(C)c(S(=O)(=O)NC(Cc2ccccc2)C(=O)NC(C)C(=O)Nc2nnc(S)s2)c(C)c1 (stereo unspecified) [3-phenyl-N-{1-[(5-sulfanyl-1,3,4-thiadiazol-2-yl)carbamoyl]ethyl}-2-[(2,4,6-trimethylbenzene)sulfonamido]propanamide]",17
21,"CC(NC(=O)C(Cc1ccccc1)NS(=O)(=O)c1cccc(C(F)(F)F)c1)C(=O)Nc1nnc(S)s1 (stereo unspecified) [3-phenyl-N-{1-[(5-sulfanyl-1,3,4-thiadiazol-2-yl)carbamoyl]ethyl}-2-{[3-(trifluoromethyl)benzene]sulfonamido}propanamide]",9
